Results on 36 compounds are retold here after ChEMBL document CHEMBL5236670 (Bioorg Med Chem Lett, 2023).

The target of series [1] is Glycogen synthase kinase-3 beta (Homo sapiens, UniProt P49841). Kind of series: Inhibition of GSK-3beta (unknown origin) incubated for 1 hr by HTRF assay.
A short description of series [2]: Metabolic stability in rat liver microsomes assessed as compound remaining at 0.5 uM after 10 mins. It is filed as ADME, Microsome. The following applies: read-out: Stability.
Series [3] in a line: Metabolic stability in mouse liver microsomes assessed as compound remaining at 0.5 uM after 10 mins. It is filed as ADME, Microsome. To be noted: read-out: Stability.
Series [4] in a line: Metabolic stability in human liver microsomes assessed as compound remaining at 0.5 uM after 10 mins. The format is ADME, Microsome. The following applies: read-out: Stability.
Another series deals with Mus musculus. Kind of series: Anti-alzheimer activity in triple-transgenic mouse model at 30 mg/kg, po. The format is functional, organism-based.

Each structure is given as a SMILES string. Calls of active or inactive are those of the source. The rule behind the calls is not given here.

Chain of Glycogen synthase kinase-3 beta (P49841 whole entry): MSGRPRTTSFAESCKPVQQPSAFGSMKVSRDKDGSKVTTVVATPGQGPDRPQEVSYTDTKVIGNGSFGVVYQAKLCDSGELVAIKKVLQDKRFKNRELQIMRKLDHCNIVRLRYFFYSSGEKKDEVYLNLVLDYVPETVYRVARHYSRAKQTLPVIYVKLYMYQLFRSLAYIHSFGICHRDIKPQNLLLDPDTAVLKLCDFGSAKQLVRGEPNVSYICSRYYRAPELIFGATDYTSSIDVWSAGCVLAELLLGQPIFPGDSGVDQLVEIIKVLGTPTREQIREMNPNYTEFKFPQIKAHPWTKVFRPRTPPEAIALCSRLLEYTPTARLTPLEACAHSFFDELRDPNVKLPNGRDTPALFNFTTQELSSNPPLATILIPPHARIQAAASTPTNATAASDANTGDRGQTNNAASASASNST

With `O=C(Nc1cnccc1N1CCC(F)(F)CC1)c1ccnc(NC(=O)C2CC2)c1`, the IC50 in series [1] stood at 0.19 nM. For the same compound, the remaining at 10 min, 0.5 µM was determined as 6% in series [2], 0.2% in series [3] and 25% in series [4].

For `C[C@H]1CN(c2ccncc2NC(=O)c2ccnc(NC(=O)C3CC3)c2)CCO1`, the remaining at 10 min, 0.5 µM worked out at 40% in series [2], 1% in series [3] and 66% in series [4].

In turn, `O=C(Nc1cncc(-c2cccc(F)c2F)c1)c1ccnc(NC(=O)C2CCC(F)(F)C2)c1` (centres undefined) came in with an IC50 in series [1] of 2.5 nM.

As to `O=C(Nc1cnccc1C1CCCCC1)c1ccnc(NC(=O)C2CC2)c1`, the remaining at 10 min, 0.5 µM amounted to 0.4% in series [2], 0.6% in series [3] and 1% in series [4].

Regarding `O=C(Nc1cnccc1C1CCC1)c1ccnc(NC(=O)C2CC2)c1`, the figures for the remaining at 10 min, 0.5 µM in series [2], in series [3] and in series [4] were 43%, 1% and 72%, respectively.

`O=C(Nc1cnccc1-c1ccccc1)c1ccnc(NC(=O)C2CCCC2)c1` showed an IC50 in series [1] of 2.1 nM.

In series [1], `O=C(Nc1cncc(-c2ccccc2F)c1)c1ccnc(NC(=O)C2CC2)c1` yielded an IC50 of 3 nM. Moreover, the outcome with Mus musculus was inactive. Moreover, the remaining at 10 min, 0.5 µM in series [3] is 90%; in series [4], 88%.

`O=C(Nc1cnccc1-c1ccccc1)c1ccnc(NC(=O)C2CCOCC2)c1` yielded an IC50 in series [1] of 4.5 nM.

For the compound `C[C@@H]1CN(c2ccncc2NC(=O)c2ccnc(NC(=O)C3CC3)c2)CCO1`, the remaining at 10 min, 0.5 µM was 36% in series [2], 3% in series [3] and 56% in series [4].

Compound `CC(C)(O)c1ccncc1NC(=O)c1ccnc(NC(=O)C2CC2)c1` yielded an IC50 in series [1] of 0.1 nM. The values for the remaining at 10 min, 0.5 µM in series [2], in series [3] and in series [4] were 100%, 27% and 87%, respectively.

With `O=C(Nc1cncc(-c2ccccc2)c1)c1ccnc(NC(=O)C2CC2)c1`, in series [1], the IC50 was 9 nM.

For the compound `C[C@@H]1CN(c2ccncc2NC(=O)c2ccnc(NC(=O)C3CC3)c2)C[C@H](C)O1`, the figures for the remaining at 10 min, 0.5 µM in series [2], in series [3] and in series [4] were 26%, 4% and 34%, respectively.

With `CC(C)c1ccncc1NC(=O)c1ccnc(NC(=O)C2CC2)c1`, the remaining at 10 min, 0.5 µM in series [2] is 78%; in series [3], 14%; in series [4], 87%.

With `C[C@@H]1COCCN1c1ccncc1NC(=O)c1ccnc(NC(=O)C2CC2)c1`, the remaining at 10 min, 0.5 µM in series [2] is 1%; in series [3] it was 0.2%; in series [4], 4%.

As for `O=C(Nc1cnccc1C(F)(F)F)c1ccnc(NC(=O)C2CC2)c1`, the remaining at 10 min, 0.5 µM came to 100% in series [2], 86% in series [3] and 99% in series [4].

In the case of `O=C(Nc1cnccc1C1CCCC1)c1ccnc(NC(=O)C2CC2)c1`, the remaining at 10 min, 0.5 µM in series [2] worked out at 1%; in series [3], 0.5%; in series [4], 7%.

`CC1(C)CN(c2ccncc2NC(=O)c2ccnc(NC(=O)C3CC3)c2)CCO1`: the remaining at 10 min, 0.5 µM in series [2] is 16%; in series [3] it was 0.4%; in series [4], 35%.

The compound `O=C(Nc1cncc(-c2cccc(F)c2F)c1)c1ccnc(NC(=O)C2CC2)c1` displayed an IC50 in series [1] of 2.6 nM.

In the case of `O=C(Nc1cnccc1C(O)C(F)(F)F)c1ccnc(NC(=O)C2CC2)c1` (centres undefined), in series [1], half-maximal inhibition (IC50) was put at 3.6 nM. Moreover, the remaining at 10 min, 0.5 µM stood at 82% in series [2], 35% in series [3] and 86% in series [4].

Consider `O=C(Nc1cnccc1N1CCCCC1)c1ccnc(NC(=O)C2CC2)c1`, for which the values for the remaining at 10 min, 0.5 µM in series [2], in series [3] and in series [4] were 6%, 1% and 17%, respectively.

In series [1], `O=C(Nc1cnccc1-c1ccccc1)c1ccnc(NC(=O)C2CCC2)c1` came in with an IC50 of 5.7 nM.

As to `C[C@H]1COCCN1c1ccncc1NC(=O)c1ccnc(NC(=O)C2CC2)c1`, the results for the remaining at 10 min, 0.5 µM in series [2], in series [3] and in series [4] were 3%, 0.2% and 9%, respectively.

In turn, `CC(C)C(=O)Nc1cc(C(=O)Nc2cnccc2OCCC(C)(C)O)ccn1` returned an IC50 in series [1] of 2.8 nM.

On to `O=C(Nc1cnccc1N1CCC(F)(F)CC1)c1ccnc(NC(=O)[C@H]2C[C@H](Cl)C2)c1`, for which inhibition in series [1] was half-maximal at 0.37 nM (IC50).

For the compound `CC(O)c1ccncc1NC(=O)c1ccnc(NC(=O)C2CC2)c1` (centres undefined), the remaining at 10 min, 0.5 µM is 100% in series [2], 77% in series [3] and 100% in series [4].

For `CC(F)C(=O)Nc1cc(C(=O)Nc2cnccc2-c2ccccc2)ccn1` (centres undefined), in series [1], the IC50 stood at 49 nM.

`O=C(Nc1cnccc1-c1ccc(Cl)cc1)c1ccnc(NC(=O)[C@H]2C[C@H](F)C2)c1` gave an IC50 in series [1] of 1.7 nM.

For the compound `O=C(Nc1cnccc1N1CCOCC1)c1ccnc(NC(=O)C2CC2)c1`, the remaining at 10 min, 0.5 µM in series [2] turned out to be 63%; in series [3], 2%; in series [4], 84%.

For the compound `O=C(Nc1cnccc1C(=O)C(F)(F)F)c1ccnc(NC(=O)C2CC2)c1`, the remaining at 10 min, 0.5 µM was found to be 79% in series [2], 57% in series [3] and 85% in series [4].

Take `CC1(C)COCCN1c1ccncc1NC(=O)c1ccnc(NC(=O)C2CC2)c1`: the values for the remaining at 10 min, 0.5 µM in series [2], in series [3] and in series [4] were 0.4%, 0.4% and 0.9%, respectively.

`O=C(Nc1cnccc1N1CCC(F)(F)CC1)c1ccnc(NC(=O)[C@H]2C[C@@H](Cl)C2)c1` returned an IC50 in series [1] of 0.16 nM.

As to `C=C(C)c1ccncc1NC(=O)c1ccnc(NC(=O)C2CC2)c1`, the results for the remaining at 10 min, 0.5 µM in series [2], in series [3] and in series [4] were 57%, 3% and 88%, respectively.

Turning to `O=C(Nc1cnccc1-c1ccc(Cl)cc1)c1ccnc(NC(=O)[C@H]2C[C@@H](F)C2)c1`, the IC50 in series [1] is 6.9 nM.

On to `CC(C)C(=O)Nc1cc(C(=O)Nc2cnccc2OCC(C)(F)F)ccn1`, for which the concentration for half-maximal inhibition (IC50) in series [1] was 1.4 nM.

For `Cc1ccncc1NC(=O)c1ccnc(NC(=O)C2CC2)c1`, the remaining at 10 min, 0.5 µM in series [2] was determined as 97%; in series [3] it was 82%; in series [4], 93%.

In turn, `O=C(Nc1cncc(-c2cc(F)ccc2F)c1)c1ccnc(NC(=O)C2CC2)c1` returned an IC50 in series [1] of 3.7 nM.
